Measured values as given in patent publication US6770645B2, “Pharmaceutically active compounds” (Pfizer Inc., priority 2001, dated 2004).
Read-outs that look alike come from different tables or passages of the source.

Columns and labels:
[1] = target: T1, cGMP PDE5 (Homo sapiens, UniProt O76074); assay: In vitro cGMP PDE5 inhibitory activity (IC50); format: biochemical
T1 construct: The required PDE enzymes were isolated from a variety of sources, including human corpus cavernosum, human platelets; from tissue; host or cells: human corpus cavernosum tissue or human platelets
Procedure: The compounds of the present invention are potent and selective cGMP PDE5 inhibitors. In vitro PDE inhibitory activities against cyclic guanosine 3′,5′-monophosphate (cGMP) and cyclic adenosine 3′,5′-monophosphate (cAMP) phosphodiesterases were determined by measurement of their IC50 values (the concentration of compound required for 50% inhibition of enzyme activity).
The required PDE enzymes were isolated from a variety of sources, including human corpus cavernosum, human platelets, human cardiac ventricle, human skeletal muscle and human and canine retina, essentially by the method of W. J. Thompson and M. M. Appleman (Biochem., 1971, 10, 311). In particular, the cGMP-specific PDE (PDE5) and the cGMP-inhibited cAMP PDE (PDE3) were obtained from human corpus cavernosum tissue or human platelets; the cGMP-stimulated PDE (PDE2) was obtained from human corpus cavernosum or human platelets; the calcium/calmodulin (Ca/CAM)-dependent PDE (PDE1) from human cardiac ventricle; the cAMP-specific PDE (PDE4) from recombinant clone or human skeletal muscle; and the photoreceptor PDE (PDE6) from canine or human retina. Phosphodiesterases 7-11 were generated from full length human recombinant clones transfected into SF9 cells.
Assays were performed either using a modification of the “batch” method of W. J. Thompson et al. (Biochem., 1979, 18, 5228) or using a scintillation proximity assay for the direct detection of AMP/GMP using a modification of the protocol described by Amersham pic under product code TRKQ7090/7100. In summary, the effect of PDE inhibitors was investigated by assaying a fixed amount of enzyme in the presence of varying inhibitor concentrations and low substrate, (cGMP or cAMP in a 3:1 ratio unlabelled to [^3H]-labeled at a conc ˜½ Km) such that IC50 ≅Ki. The final assay volume was made up to 102 μl with assay buffer [20 mM Tris-HCl pH 7.4, 5 mM MgCl2, 1 mg/ml bovine serum albumin]. Reactions were initiated with enzyme, incubated for 30-60 min at 30° C. to give <30% substrate turnover and terminated with 50 μl yttrium silicate SPA beads (containing 3 mM of the respective unlabelled cyclic nucleotide for PDEs 3, 9 and 11). Plates were resealed and shaken for 20 min, after which the beads were allowed to settle for 30 min in the dark and then counted on a TopCount plate reader (Packard, Meriden, Conn.). Radioactivity units were converted to % activity of an uninhibited control (100%), plotted against inhibitor concentration and inhibitor IC50 values obtained using the ‘Fit Curve’ Microsoft Excel extension or inhouse equivalent.

[2] = In vitro metabolism: human liver microsome (HLM) half-life; format: in vitro ADME; details: human liver microsomes, pH 7.4, human liver microsomes
Procedure: In vitro metabolism experiments were carried out in the hepatic microsomal fractions from man. Transplant-quality human liver tissue was obtained from the International Institute for the Advancement of Medicine (Exton, Pa., USA). Microsomes were prepared according to the method described in Biochemical Pharmacology, […], 48, 2147-2156 and stored at −80° C. The concentrations of protein and cytochrome P450 were determined by standard methods described in Journal of Biological Chemistry, 1951, 193, 265-275 and Journal of Biological Chemistry, 1964, 239, 2370-2378.
Microsomal incubations (1.5 ml) were prepared containing 0.5 μM cytochrome P450, 200 mM phosphate buffer (pH 7.4), 0.1 M MgCl2, 0.1 M isocitric acid, 1 unit/ml isocitrate dehydrogenase and 20 mM β-NADP. Compounds under study were added after a 5 min preincubation at 37° C. to give an initial substrate concentration of 1 μM. The mixture was incubated at 37° C. and samples (100 μl) were removed for analysis for up to 60 min. Metabolism in samples was terminated by the addition of NaOH (0.1 M) containing an internal standard (chosen to have similar physicochemical properties to compounds under study), followed by extraction into ethyl acetate (2 ml). The extracts were evaporated to dryness and analysed by LC-MS/MS (Hewlett Packard HP1100 binary pump, Hypersil HS100 C18, 5 cm by 4.6 mm internal diameter, 5 μm column using a mobile phase of 2 mM ammonium acetate in 90:10 methanol/water, aqueous portion adjusted to pH 4 with glacial acetic acid, and a flowrate of 1 ml/min). The mass spectrometer was a Sciex API 2000 with TurbolonSpray interface using a positive ion multiple reaction monitoring (MRM) detection mode. Nitrogen was used as curtain, nebuliser, TurbolonSpray and collision gases, and the TurbolonSpray temperature was 100° C. Typical voltages were as follows: IS=5.2 kV; RNG=380 V; Q0=−10 V; IQ1=−11 V; ST=−15;RO1=−11 V; MU=gain adjusted as per Sciex user manual. Collision energy was 55 eV for high MRM, OR=65 V. Dwell time was 200 msec with a 50 msec pause. Data was acquired using MSExpress v 1.1 and processed using Macquan 1.5 (PE Sciex)). Disappearance rate constants (k) in human microsomal preparations were determined by linear regression of the log ratio (compound under study/internal standard) versus time. The in vitro human microsomal half-lives were determined according to the equation […]=In 2/k.

[3] = bounds for groups of Examples, read-out: IC50 values for the PDE5 enzyme
[4] = in vitro cGMP PDE5 inhibitory activity, Table 1, read-out: IC50
[5] = bound stated, read-out: HLM half-lifes
[6] = initial substrate concentration 1 μM, 37° C., Table 2, read-out: HLM t1/2

Compound	IC50 [1, 3] [nM]	IC50 [1, 4] [nM]	half-life at 1 μM [2, 5] [min]	half-life at 1 μM [2, 6] [min]	melting point [°C]
CCCc1nn(C)c2c(=O)[nH]c(-c3cc(S(C)(=O)=O)ccc3OCC)nc12 [Example 1, 5-[2-Ethoxy-5-(methylsulfonyl)phenyl]-1-methyl-3-propyl-1,6-dihydro-7H-pyrazolo[4,3-d]pyrimidin-7-one]	< 10	5.6	≥ 30	67	235 to 236
CCCCOc1ccc(S(C)(=O)=O)cc1-c1nc2c(CC)n(CCOC)nc2c(=O)[nH]1 [Example 2, 5-[2-Butoxy-5-(methylsulfonyl)phenyl]-3-ethyl-2-(2-methoxyethyl)-2,6-dihydro-7H-pyrazolo[4,3-d]pyrimidin-7-one]	< 10	6.5	≥ 30	–	174 to 176
CCc1nn(Cc2nccn2C)c2c(=O)[nH]c(-c3cc(S(C)(=O)=O)ccc3OCC(C)C)nc12 [Example 7, 3-Ethyl-5-[2-isobutoxy-5-(methylsulfonyl)phenyl]-1-[(1-methyl-1H-imidazol-2-yl)methyl]-1,6-dihydro-7H-pyrazolo[4,3-d]pyrimidin-7-one]	< 10	1.7	–	–	253 to 254
CCCCOc1ccc(S(C)(=O)=O)cc1-c1nc2c(CC)n(CCN3CCOCC3)nc2c(=O)[nH]1 [Example 8, 5-[2-Butoxy-5-(methylsulfonyl)phenyl]-3-ethyl-2-[2-(4-morpholinyl)ethyl]-2,6-dihydro-7H-pyrazolo[4,3-d]pyrimidin-7-one]	< 10	10	–	–	235 to 238
CCc1c2nc(-c3cc(S(C)(=O)=O)ccc3OCC(C)C)[nH]c(=O)c2nn1Cc1nccn1C [Example 9, 3-Ethyl-5-[2-isobutoxy-5-(methylsulfonyl)phenyl]-2-[(1-methyl-1H-imidazol-2-yl)methyl]-2,6-dihydro-7H-pyrazolo[4,3-d]pyrimidin-7-one]	< 10	3.95	≥ 30	–	253 to 254
CCc1c2nc(-c3cc(S(C)(=O)=O)ccc3OCC(C)C)[nH]c(=O)c2nn1CCN1CCOCC1 [Example 10, 3-Ethyl-5-[2-isobutoxy-5-(methylsulfonyl)phenyl]-2-[2-(4-morpholinyl)ethyl]-2,6-dihydro-7H-pyrazolo[4,3-d]pyrimidin-7-one]	< 10	7.6	–	–	268 to 273
CCCOc1ccc(S(C)(=O)=O)cc1-c1nc2c(CC)nn(Cc3ccccn3)c2c(=O)[nH]1 [Example 11, 3-Ethyl-5-[5-(methylsulfonyl)-2-propoxyphenyl]-1-(2-pyridinylmethyl)-1,6-dihydro-7H-pyrazolo[4,3-d]pyrimidin-7-one]	< 10	1.4	≥ 30	–	–
CCCOc1ccc(S(C)(=O)=O)cc1-c1nc2c(CC)n(CC3CC3)nc2c(=O)[nH]1 [Example 12, 2-(Cyclopropylmethyl)-3-ethyl-5-[5-(methylsulfonyl)-2-propoxyphenyl]-2,6-dihydro-7H-pyrazolo[4,3-d]pyrimidin-7-one]	< 10	1	≥ 30	> 120	233 to 234
CCc1nn(C[C@@H]2CCCN2C)c2c(=O)[nH]c(-c3cc(S(C)(=O)=O)ccc3OCC(C)C)nc12 [Example 13, 3-Ethyl-5-[2-isobutoxy-5-(methylsulfonyl)phenyl]-1-{[(2S)-1-methylpyrrolidinyl]methyl}-1,6-dihydro-7H-pyrazolo[4,3-d]pyrimidin-7-one]	< 10	6.3	–	–	190 to 194
CCc1c2nc(-c3cc(S(C)(=O)=O)ccc3OCC(C)C)[nH]c(=O)c2nn1C[C@H]1CCCN1C [Example 14, 3-Ethyl-5-[2-isobutoxy-5-(methylsulfonyl)phenyl]-2-{[(2R)-1-methylpyrrolidinyl]methyl}-2,6-dihydro-7H-pyrazolo[4,3-d]pyrimidin-7-one]	< 10	8.3	≥ 30	–	178 to 180
CCc1c2nc(-c3cc(S(C)(=O)=O)ccc3OCC(C)C)[nH]c(=O)c2nn1Cc1cccnn1 [Example 15, 3-Ethyl-5-[2-isobutoxy-5-(methylsulfonyl)phenyl]-2-(3-pyridazinylmethyl)-2,6-dihydro-7H-pyrazolo[4,3-d]pyrimidin-7-one]	< 10	7.3	–	–	244 to 247
CCc1nn(Cc2cccnn2)c2c(=O)[nH]c(-c3cc(S(C)(=O)=O)ccc3OCC(C)C)nc12 [Example 16, 3-Ethyl-5-[2-isobutoxy-5-(methylsulfonyl)phenyl]-1-(3-pyridazinylmethyl)-1,6-dihydro-7H-pyrazolo[4,3-d]pyrimidin-7-one]	< 10	9.8	–	–	231 to 234
CCc1c2nc(-c3cc(S(C)(=O)=O)ccc3OCC(C)C)[nH]c(=O)c2nn1Cc1ccccn1 [Example 17, 3-Ethyl-5-[2-isobutoxy-5-(methylsulfonyl)phenyl]-2-(2-pyridinylmethyl)-2,6-dihydro-7H-pyrazolo[4,3-d]pyrimidin-7-one]	< 10	4.8	–	–	235 to 238
CCc1nn(C2CN(C(C)C)C2)c2c(=O)[nH]c(-c3cc(S(C)(=O)=O)ccc3OCC(C)C)nc12 [Example 20]	–	13.7	–	–	206 to 209
CCc1c2nc(-c3cc(S(C)(=O)=O)ccc3OCC(C)C)[nH]c(=O)c2nn1C1CCN(C)CC1 [Example 21, 3-Ethyl-5-[2-isobutoxy-5-(methylsulfonyl)phenyl]-2-(1-methyl-4-piperidinyl)-2,6-dihydro-7H-pyrazolo[4,3-d]pyrimidin-7-one]	–	12.5	–	–	292 to 295
CCc1c2nc(-c3cc(S(C)(=O)=O)ccc3OCC(C)C)[nH]c(=O)c2nn1C1CCN(C(C)C)CC1 [Example 22, 3-Ethyl-5-[2-isobutoxy-5-(methylsulfonyl)phenyl]-2-(1-isopropyl-4-piperidinyl)-2,6-dihydro-7H-pyrazolo[4,3-d]pyrimidin-7-one]	–	13.4	–	–	273 to 275
C=CCc1nc(CC)n2nc(-c3cc(S(C)(=O)=O)ccc3OCCCC)[nH]c(=O)c12 [Example 29]	< 10	6.7	–	–	192 to 194
